Reference: patent US9737542B2, “Pyrrolotriazine kinase inhibitors” (BRISTOL-MYERS SQUIBB COMPANY, priority 2013, dated 2017)

How the values were obtained:
[1] = test system: mice (pain response, formalin paw test); assay: formalin paw test; format: in vivo, mouse; details: % response relative to gabapentin 200 mg/kg
Protocol: AAK1 homozygous (−/−) and their wild-type (+/+) littermates were tested using the formalin paw test in order to assess their acute and tonic nociceptive responses. For these tests, Automatic Nociception Analyzers (purchased from the Ozaki lab at University of California, San Diego) were used. A metal band was placed around the left hind paw of each mouse 30 minutes prior to testing. After the 30-minute acclimation period, 20 μl of 5% formalin is subcutaneously injected in the dorsal surface of the left hind paw. Mice were individually housed in cylindrical chambers for 45 minutes. Fresh 5% formalin solution was prepared by diluting formaldehyde (Formalde-fresh 20%, Fisher Scientific, Fair Lawn, N.J.) with distilled water. Investigatory compounds were administered 30 minutes prior to formalin injection.
A computer recorded flinches per minute, total flinches for phase I (acute phase=first 8 minutes), and total flinches for phase II (tonic phase=time between minutes 20-40 or 10-60 minutes for drug studies) through an electromagnetic field. See Yaksh T L, Ozaki G, McCumber D, Rathbun M, Svensson C, Malkmus S, Yaksh M C. An automated flinch detecting system for use in the formalin nociceptive bioassay. J Appl Physiol., 2001; 90:2386-402.
The same test was used to confirm that the administration of an AAK1 inhibitor can also affect pain response. […]

[2] = target: GST-Xa-hAAK1 (Homo sapiens (Human), UniProt Q2M2I8); assay: AAK1 Kinase Assay; format: biochemical; details: ATP 22 μM, 3 hours at room temperature
Chain of GST-Xa-hAAK1 (Q2M2I8 whole entry): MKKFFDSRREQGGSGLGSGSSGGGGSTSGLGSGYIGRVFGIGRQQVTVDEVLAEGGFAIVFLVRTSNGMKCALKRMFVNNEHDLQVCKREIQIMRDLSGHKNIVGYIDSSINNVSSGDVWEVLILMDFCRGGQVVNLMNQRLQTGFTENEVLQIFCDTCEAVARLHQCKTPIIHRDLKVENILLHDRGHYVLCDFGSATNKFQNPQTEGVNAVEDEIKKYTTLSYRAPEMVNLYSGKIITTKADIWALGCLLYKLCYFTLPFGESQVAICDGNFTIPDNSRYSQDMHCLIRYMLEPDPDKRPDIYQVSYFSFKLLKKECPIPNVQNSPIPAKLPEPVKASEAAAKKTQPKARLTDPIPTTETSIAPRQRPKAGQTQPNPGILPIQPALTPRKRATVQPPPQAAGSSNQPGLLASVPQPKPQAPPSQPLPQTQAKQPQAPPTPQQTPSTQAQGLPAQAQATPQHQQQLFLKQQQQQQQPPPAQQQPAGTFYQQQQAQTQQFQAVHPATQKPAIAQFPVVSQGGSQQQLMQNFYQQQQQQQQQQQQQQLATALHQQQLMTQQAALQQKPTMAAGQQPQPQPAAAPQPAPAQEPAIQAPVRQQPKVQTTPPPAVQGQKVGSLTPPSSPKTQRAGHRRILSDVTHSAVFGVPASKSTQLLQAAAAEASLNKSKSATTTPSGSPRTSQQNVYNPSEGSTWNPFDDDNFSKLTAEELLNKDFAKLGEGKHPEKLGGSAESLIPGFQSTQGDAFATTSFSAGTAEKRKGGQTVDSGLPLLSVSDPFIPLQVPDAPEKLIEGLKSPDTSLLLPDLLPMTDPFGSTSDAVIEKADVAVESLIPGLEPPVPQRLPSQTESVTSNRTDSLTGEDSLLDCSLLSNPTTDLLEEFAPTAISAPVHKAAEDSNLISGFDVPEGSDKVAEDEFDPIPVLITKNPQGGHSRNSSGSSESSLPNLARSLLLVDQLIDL
Protocol: The assays were performed in U-bottom 384-well plates. […] The reactions were initiated by the combination of bacterially expressed, GST-Xa-hAAK1 with substrates and test compounds. The reactions were incubated at room temperature for 3 hours and terminated by adding 60 μl of 35 mM EDTA buffer to each sample. The reactions were analyzed on the Caliper LabChip 3000 (Caliper, Hopkinton, Mass.) by electrophoretic separation of the fluorescent substrate and phosphorylated product. Inhibition data were calculated by comparison to EDTA quenched control reactions for 100% inhibition and vehicle-only reactions for 0% inhibition. […] Dose response curves were generated to determine the concentration required inhibiting 50% of kinase activity (IC50). Compounds were dissolved at 10 mM in dimethylsulfoxide (DMSO) and evaluated at eleven concentrations. IC50 values were derived by non-linear regression analysis.

## CC(C)c1nc(-c2cccc(NC(=O)c3cnc4ccc(NC5CCC(N)CC5)nn34)c2)no1 [6-(((1R,4R)-4-aminocyclohexyl)amino)-N-(3-(5-isopropyl-1,2,4-oxadiazol-3-yl)phenyl)imidazo[1,2-b]pyridazine-3-carboxamide]
[1]; 60 mg/kg sc
  Response: 59%

## NCC1(CC(=O)O)CCCCC1 [Gabapentin, reference compound]
[1]; 200 mg/kg sc
  Response: 73%

## CNC1CCN(Cc2ccn3ncnc(Nc4cccc(-c5noc(C(C)(C)C)n5)c4)c23)CC1 [Example 41, N-(3-(5-(tert-butyl)-1,2,4-oxadiazol-3-yl)phenyl)-5-((4-(methylamino)piperidin-1-yl)methyl)pyrrolo[2,1-f][1,2,4]triazin-4-amine]
[2]; listed as IC50 ranges
  IC50: 10 to 100 nM

## NC1CN(Cc2ccn3ncnc(Nc4cccc(-c5nnc(C6CC6)s5)c4)c23)C1 [Example 25, 5-((3-aminoazetidin-1-yl)methyl)-N-(3-(5-cyclopropyl-1,3,4-thiadiazol-2-yl)phenyl)pyrrolo[2,1-f][1,2,4]triazin-4-amine]
[2]; listed as IC50 ranges
  IC50: 100 to 1000 nM

## NC1CCN(Cc2ccn3ncnc(Nc4cc(O)cc(-c5ncco5)c4)c23)CC1 [Example 7, 3-((5-((4-aminopiperidin-1-yl)methyl)pyrrolo[2,1-f][1,2,4]triazin-4-yl)amino)-5-(oxazol-2-yl)phenol]
[2]; listed as IC50 ranges
  IC50: 100 to 1000 nM

## CC(C)c1nnc(-c2cccc(Nc3ncnn4ccc(CN5CCCC(CN)C5)c34)c2)s1 (stereo not shown) [Example 71, 5-((3-(aminomethyl)piperidin-1-yl)methyl)-N-(3-(5-isopropyl-1,3,4-thiadiazol-2-yl)phenyl)pyrrolo[2,1-f][1,2,4]triazin-4-amine]
[2]; listed as IC50 ranges
  IC50: 1000 to 5000 nM

## CC(C)NC(=O)c1ccn2ncnc(Nc3cccc(-c4nnn(C(C)C)n4)c3)c12 [Example 106, N-isopropyl-4-((3-(2-isopropyl-2H-tetrazol-5-yl)phenyl)amino)pyrrolo[2,1-f][1,2,4]triazine-5-carboxamide]
[2]
  IC50: 2350 nM

## CC(C)n1nnc(-c2cccc(Nc3ncnn4cccc34)c2)n1 [Example 76, N-(3-(2-isopropyl-2H-tetrazol-5-yl)phenyl)pyrrolo[2,1-f][1,2,4]triazin-4-amine]
[2]
  IC50: 220 nM

## CC(C)c1nc(-c2cc(Cl)cc(Nc3ncnn4ccc(CN5CCC(N)CC5)c34)c2)no1 [Example 45, 5-((4-aminopiperidin-1-yl)methyl)-N-(3-chloro-5-(5-isopropyl-1,2,4-oxadiazol-3-yl)phenyl)pyrrolo[2,1-f][1,2,4]triazin-4-amine]
[2]; listed as IC50 ranges
  IC50: 10 to 100 nM

## CC(C)n1nnc(-c2cc(F)cc(Nc3ncnn4ccc(CN5CCC(N)CC5)c34)c2)n1 [Example 51, 5-((4-aminopiperidin-1-yl)methyl)-N-(3-fluoro-5-(2-isopropyl-2H-tetrazol-5-yl)phenyl)pyrrolo[2,1-f][1,2,4]triazin-4-amine]
[2]; listed as IC50 ranges
  IC50: 1 to 10 nM
